Laboratory results published in article PMC5531278 (Bioorganic & medicinal chemistry letters, 2016).
Where two headings read alike, the source gives them in different places.

Experiments:
CD-1 mice = conditions: mouse, in vivo
in vitro [1] = conditions: mouse
GL261-luc2 = test: MTT cell viability assay in GL261-luc2; format: cell-based; conditions: Mus musculus, 72 h, read-out: MTT assay IC50
in vitro [2] = conditions: human, microsomes
Caco-2 cell monolayer = test: Bidirectional Caco-2 cell monolayer permeability; conditions: based on the Caco-2 permeability study
[3] = Bidirectional Caco-2 cell monolayer permeability; conditions: human, Caco-2, pH 6.5

In the case of `O=C(O)c1cc2ccc(N(Cc3ccccc3)Cc3ccccc3)cc2oc1=O` [4a, 7-(dibenzylamino)-2-oxo-2H-chromene-3-carboxylic acid], the “Body weights compared to the control group” value (CD-1 mice; ip, 20 mg/kg) is reported as “no significant difference in body weights”, the “Visible toxic effects or mortality” value (CD-1 mice; ip, 20 mg/kg) is reported as “did not show any visible toxic effects or mortality” and the “Body weights compared to the control group” value (CD-1 mice; po, 100 mg/kg) is reported as “no significant difference in body weights”. The “Visible toxic effects or mortality” value (CD-1 mice; po, 100 mg/kg) was “did not show any visible toxic effects or mortality”, the microsomal CLint at 0.1 μM (in vitro [1]; microsomes) was < 116 µL/min/mg and the half-life at 0.1 μM (in vitro [1]; microsomes, Half-life Trial 1) was 1.51 h. For the same compound, the half-life at 0.1 μM (in vitro [1]; microsomes, Half-life Trial 2) was 1.23 h, the IC50 (GL261-luc2) was > 250 µM and the microsomal CLint at 0.1 μM (in vitro [2]) was < 116 µL/min/mg. For the same compound, the Absorption (Caco-2 cell monolayer) was ~ 30%, the Papp A→B at 10 µM [3] was 32 ×10⁻⁶ cm/s and the Papp B→A at 10 µM [3] was 6.4 ×10⁻⁶ cm/s.

In the case of `O=C(O)c1cc2ccc(N3CCCC3)cc2oc1=O` [4b], the IC50 (GL261-luc2) is reported as > 250 µM.

With `CCCN(CCC)c1ccc2cc(C(=O)O)c(=O)oc2c1` [4c] the IC50 (GL261-luc2) was > 250 µM.

For `C=CCN(CC=C)c1ccc2cc(C(=O)O)c(=O)oc2c1` [4d], the IC50 (GL261-luc2) was > 250 µM.

For `C#CCN(CC#C)c1ccc2cc(C(=O)O)c(=O)oc2c1` [4e], the IC50 (GL261-luc2) was > 250 µM.

With `CC(C)NCC(O)COc1cccc2ccccc12` (centres unmarked) [Propranolol] the half-life at 0.1 μM (in vitro [1]; liver microsomes, Half-life Trial 2, mouse liver microsomes, 0.1 μM) was 0.158 h.
